Structures can show the parent of a compound that is named as a salt.
Target: T1, Human BACE (Homo sapiens, UniProt P56817)
T1 construct: Recombinant BACE (extracellular domain, expressed in baculovirus and purified using standard methods); made in house
Assay: Test 1: Inhibition of Human BACE
Type: biochemical
Details: Test 1; recombinant BACE extracellular domain, acetate buffer pH 4.5, 1 hour incubation at room temperature, fluorescence-quenched APP-derived peptide substrate; read-out: Bace IC50
Description: Test 1: Inhibition of Human BACE
Recombinant BACE (extracellular domain, expressed in baculovirus and purified using standard methods) at 0.1 to 10 nM concentrations is incubated with the test compound at various concentrations for 1 hour at room temperature in 10 to 100 mM acetate buffer, pH 4.5, containing 0.1% CHAPS. […] IC50 values are calculated from percentage of inhibition of BACE-activity as a function of the test compound concentration.

T1 sequence (P56817 46-457 limits assumed): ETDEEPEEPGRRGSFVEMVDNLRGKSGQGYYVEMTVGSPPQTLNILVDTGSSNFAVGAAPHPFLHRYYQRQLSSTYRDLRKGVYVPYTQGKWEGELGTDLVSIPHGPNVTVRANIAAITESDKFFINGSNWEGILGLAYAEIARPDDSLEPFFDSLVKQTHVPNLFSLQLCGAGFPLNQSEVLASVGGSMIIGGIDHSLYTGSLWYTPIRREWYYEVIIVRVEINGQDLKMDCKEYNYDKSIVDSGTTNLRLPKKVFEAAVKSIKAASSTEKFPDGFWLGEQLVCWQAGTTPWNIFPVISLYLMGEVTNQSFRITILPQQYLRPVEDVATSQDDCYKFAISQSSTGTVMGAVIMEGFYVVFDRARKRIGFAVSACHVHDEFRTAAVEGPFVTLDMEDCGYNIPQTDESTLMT

Structure (SMILES): CCc1cc(C[C@@H]2CS(=O)(=O)C[C@H](NCc3cccc(C(C)(C)C)c3)[C@H]2O)cc(F)c1NC(=O)COC [Example 10, N-{4-[(3S,4S,5R)-5-(3-tert-Butyl-benzylamino)-4-hydroxy-1,1-dioxo-hexa-hydro-1lambda*6*-thiopyran-3-ylmethyl]-2-ethyl-6-fluoro-phenyl}-2-methoxy-acetamide hydrochloride]
- IC50: 48 nM

Structure (SMILES): CN(C)CCNc1ccc(C[C@@H]2CS(=O)(=O)C[C@H](NCc3cccc(C(C)(C)C)c3)[C@H]2O)cc1F (racemic) [Example 7, (3R*,4S*,5S*)-3-(3-tert-Butyl-benzylamino)-5-[4A2-dimethylamino-ethyl-amino)-3-fluoro-benzyl]-1,1-dioxo-hexahydro-1lambda*6*-thiopyran-4-ol]
- IC50: 8400 nM

Structure (SMILES): CC(C)(C)c1cccc(CN[C@H]2CS(=O)(=O)C[C@@H](Cc3cc(F)c(N)c(N4CCCC4=O)c3)[C@@H]2O)c1 (relative stereo) [Example 4, 1-{2-Amino-5-[(3S*,4S*,5R*)-5-(3-tert-butyl-benzylamino)-4-hydroxy-1,1-dioxo-hexahydro-1lambda*6*-thiopyran-3-ylmethyl]-3-fluoro-phenyl}-pyrrolidin-2-one di-trifluoroacetate]
- IC50: 326 nM

Structure (SMILES): CC(C)(C)c1cccc(CNC2CS(=O)(=O)CC(Cc3ccc(N)c(C(=O)NCC(F)(F)F)c3)C2O)c1 (stereo not shown) [Example 23]
- IC50: 175 nM

Structure (SMILES): C[Si](C)(C)c1cccc(CNC2C[S+]([O-])CC(Cc3cc(F)c(N)c(OCC(F)(F)F)c3)C2O)c1 (stereo not shown) [Example 63]
- IC50: 118 nM

Structure (SMILES): CCCCNC(=O)c1cc(C[C@@H]2CS(=O)(=O)C[C@H](NCc3cccc(C(C)(C)C)c3)[C@H]2O)ccc1N (racemic) [Example 18, 2-Amino-N-butyl-5-[3S*,4S*,5R*)-5-(3-tert-butyl-benzylamino)-4-hydroxy-1,1-dioxo-hexahydro-1lambda*6*-thiopyran-3-ylmethyl]-benzamide]
- IC50: 38 nM

Structure (SMILES): CC(C)(C)c1cccc(CN[C@H]2CS(=O)(=O)C[C@@H](Cc3cc(F)c(NC(=O)CN4CCCCC4)c(Cl)c3)[C@@H]2O)c1 [Example 16]
- IC50: 34 nM
